“Also recorded” adds a separate entry of the source.
Columns and labels:
[1] = test system: SOS response in JE2 cells; test: SOS reporter assay (GFP under control of the recA promoter); format: cell-based, Staphylococcus aureus; settings: for SOS response (normalized GFP fluorescence/cell): JE2 recA-GFP reporter, SOS activated with CFX (10 µM), titration of compound
Description: A SOS reporter system was generated by transformation of JE2 cells with a plasmid containing GFP under control of the recA promoter. Activation of the SOS response in these cells results in expression of GFP which can be monitored by fluorescence intensity. […] IMP-1700 (10) was coupled with N-Boc-ethylenediamine to afford amide 19, followed by removal of the Boc group in 4 M HCl/dioxane and purification using strong cation exchange resin. The resulting free amine 20 was coupled to N-hydroxysuccinimide (NHS)-activated Sepharose resin at 4 °C overnight (Figure 2C), and the remaining NHS sites quenched in Tris buffer. SoluBL21 competent E. coli were transformed with pET28b^+ containing StrepII-tagged AddA and hexahistidine-tagged AddB, and expression induced overnight at 16 °C. […] Beads were washed three times with lysis buffer and bound protein eluted with SDS-PAGE sample buffer, followed by PAGE separation. […]
JE2 transformed with SOS-inducible pCN34 PrecA-gfp reporter plasmid expressing GFP under the control of the recA promoter were grown to late stationary phase at 37 °C in MHB containing kanamycin (90 μg/mL). Stationary phase JE2 culture (1 mL) was centrifuged (17,000 × g, 2 min), the supernatant removed and cells resuspended in assay media (12.5 µM […]
concentration was maintained >12.5 µM and DMSO concentration maintained at 1.5% (v/v).
JE2 culture (20 uL) was added to inhibitor solutions (180 µL) to a final cell density of 4 x 10^7 CFU/mL and samples incubated in a M200-PRO microplate reader (Tecan) at 37 °C with 700 rpm agitation for 17 h. GFP fluorescence intensity and OD600 were measured at 15 min intervals. Measurements were background corrected against no-inocula control and normalized to no-test inhibitor control at mid-exponential growth phase (4.5 h) for dose-response analysis. […]

[2] = test system: AddAB (StrepII-AddA and His6-AddB); test: Recombinant AddAB pulldown with compound-functionalized Sepharose; format: binding; settings: E. coli lysate co-expressing StrepII-AddA and His6-AddB, Western blot
Description: A SOS reporter system was generated by transformation of JE2 cells with a plasmid containing GFP under control of the recA promoter. Activation of the SOS response in these cells results in expression of GFP which can be monitored by fluorescence intensity. […] This decrease is indicative of inhibition of the SOS response during cell death, and consistent with the proposed inhibition of AddAB-mediated DNA repair pathways. Finally, to provide additional evidence that inhibition of the bacterial DNA repair pathway by IMP-1700 (10) occurred through inhibition of AddAB, a target pulldown was conducted. IMP-1700 (10) was coupled with N-Boc-ethylenediamine to afford amide 19, followed by removal of the Boc group in 4 M HCl/dioxane and purification using strong cation exchange resin. The resulting free amine 20 was coupled to N-hydroxysuccinimide (NHS)-activated Sepharose resin at 4 °C overnight (Figure 2C), and the remaining NHS sites quenched in Tris buffer. SoluBL21 competent E. coli were transformed with pET28b^+ containing StrepII-tagged AddA and hexahistidine-tagged AddB, and expression induced overnight at 16 °C. Cells were lysed via sonication and the total lysate incubated with IMP-1700 (10)-functionalized or control Sepharose beads which had been treated with DMSO then Tris-quenched. Beads were washed three times with lysis buffer and bound protein eluted with SDS-PAGE sample buffer, followed by PAGE separation. […]
agar (LA) supplemented with kanamycin (50 μg/mL). Liquid cultures were grown at 37 °C with shaking at 180 r.p.m until an OD600 of 0.5 was reached, at which point cultures were cooled to 16 °C. Protein expression was induced by addition of isopropyl β-D-thiogalactoside (1 mM), followed by incubation for 20 h at 16 °C with shaking. Cells were collected by centrifugation (4,000 × g, 5 min) and stored at -20 °C.
Cells were re-suspended in lysis buffer (50 mM Tris-HCl, 150 mM NaCl, pH 7.5) and lysed on ice by sonication (2 min, 5 s on-off cycle, 40% amplitude) using a Vibra-cell sonicator (Sonics). […]

[3] = test system: methicillin-resistant S. aureus (MRSA, USA300 JE2); test: Ciprofloxacin (CFX) potentiation in MRSA growth inhibition assay; format: cell-based, Staphylococcus aureus; settings: compared to IMP-1700 (10)
Experimental: 2.1. Biological and biochemical methods
Bacterial strains and culture conditions
Strains utilized in the present study are detailed in Table S1. All strains used were cultivated on Mueller Hinton Agar (MHA) and grown to stationary-phase in Mueller Hinton Broth (MHB) at 37 °C for 16 h, with shaking at 180 r.p.m.
Minimum inhibitory concentration (MIC) assays
MIC assays were performed in 96 well plates and MICs were determined in accordance with the broth microdilution protocol.4 Strains grown to stationary-phase in MHB were adjusted to 5 x 10^5 colony-forming units (CFU)/mL in fresh MHB (100 µL/well) supplemented with DMSO to ensure a constant concentration of 0.5% (v/v) DMSO across all experiments. Where […]
or H2O2 (200 μM). Test compounds were prepared as two-fold serial dilutions. Cells were […]
as the lowest concentration with no visible bacterial growth, and the optical density at 600 nm (OD600) was recorded. OD600 measurements were background corrected against no-inocula control and normalized to DMSO control for dose-response analysis. The EC50 value mean and SEM were calculated from individual EC50 values from three biological replicates. […]

E. coli DNA gyrase = target: T1, E. coli DNA gyrase (Escherichia coli, UniProt P0AES4+P0AES6); test: DNA gyrase supercoiling assay (pBR322); format: biochemical; settings: at 12.5 μM (compounds); gel and densitometry
T1 construct: purchased Inspiralis
T1 sequence (P0AES4 whole entry, one chain of several): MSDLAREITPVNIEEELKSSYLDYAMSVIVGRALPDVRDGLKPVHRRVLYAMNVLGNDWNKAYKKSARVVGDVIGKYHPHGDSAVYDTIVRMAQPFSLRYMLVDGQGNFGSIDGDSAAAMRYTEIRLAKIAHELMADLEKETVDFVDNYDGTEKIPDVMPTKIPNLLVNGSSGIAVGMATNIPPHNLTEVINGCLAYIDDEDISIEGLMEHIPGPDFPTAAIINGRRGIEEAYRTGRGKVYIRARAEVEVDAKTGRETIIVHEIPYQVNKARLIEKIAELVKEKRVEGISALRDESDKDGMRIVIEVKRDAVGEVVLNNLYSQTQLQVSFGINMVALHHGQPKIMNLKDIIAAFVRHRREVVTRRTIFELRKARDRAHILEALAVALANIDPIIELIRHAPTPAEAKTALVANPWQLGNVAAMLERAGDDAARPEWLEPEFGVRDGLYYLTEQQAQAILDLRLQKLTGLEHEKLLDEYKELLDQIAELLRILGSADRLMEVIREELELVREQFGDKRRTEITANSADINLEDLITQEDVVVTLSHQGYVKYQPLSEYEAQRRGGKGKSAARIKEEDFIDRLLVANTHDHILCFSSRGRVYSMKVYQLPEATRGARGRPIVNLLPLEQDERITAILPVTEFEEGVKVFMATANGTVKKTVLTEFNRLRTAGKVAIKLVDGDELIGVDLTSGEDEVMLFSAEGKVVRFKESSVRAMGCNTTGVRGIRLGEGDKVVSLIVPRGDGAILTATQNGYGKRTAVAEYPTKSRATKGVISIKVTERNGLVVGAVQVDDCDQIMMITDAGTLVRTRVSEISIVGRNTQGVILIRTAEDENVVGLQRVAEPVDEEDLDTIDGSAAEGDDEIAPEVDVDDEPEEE
Experimental: DNA gyrase produces supercoiled DNA from relaxed and open-coiled DNA, which can be separated via agarose gel electrophoresis. […]
(§1) E. coli DNA gyrase supercoiling assay (Inspiralis) was performed according to the manufacturer’s instructions, ensuring a constant concentration of 1% (v/v) DMSO. Samples were separated on a 1% (w/v) agarose gel prepared with Tris/Borate/EDTA (TBE) buffer (1 M Tris-borate, 20 mM EDTA, pH 8.0). Electrophoresis was performed at 100 V until the bromophenol blue dye had run >6 cm to ensure resolution of relaxed and supercoiled DNA.
(§2) The gel was stained with SYBR Safe DNA gel stain (Invitrogen, 1:10,000 dilution in TBE) for 30 min, and visualized on a Syngene Gel Doc system. Band intensity was quantified using ImageJ software and the fraction of supercoiled plasmid was determined as the ratio of the density of the supercoiled band to the total density. Values were background corrected against the no-gyrase control and normalized to DMSO control for dose-response analysis.

E. coli topoisomerase IV = target: T2, E. coli topoisomerase IV (Escherichia coli, UniProt P0AFI2+P20083); test: Topoisomerase IV supercoiling relaxation assay (pQE80L); format: biochemical; settings: at 12.5 µM (compounds)
T2 construct: purchased Inspiralis
T2 sequence (P0AFI2 whole entry): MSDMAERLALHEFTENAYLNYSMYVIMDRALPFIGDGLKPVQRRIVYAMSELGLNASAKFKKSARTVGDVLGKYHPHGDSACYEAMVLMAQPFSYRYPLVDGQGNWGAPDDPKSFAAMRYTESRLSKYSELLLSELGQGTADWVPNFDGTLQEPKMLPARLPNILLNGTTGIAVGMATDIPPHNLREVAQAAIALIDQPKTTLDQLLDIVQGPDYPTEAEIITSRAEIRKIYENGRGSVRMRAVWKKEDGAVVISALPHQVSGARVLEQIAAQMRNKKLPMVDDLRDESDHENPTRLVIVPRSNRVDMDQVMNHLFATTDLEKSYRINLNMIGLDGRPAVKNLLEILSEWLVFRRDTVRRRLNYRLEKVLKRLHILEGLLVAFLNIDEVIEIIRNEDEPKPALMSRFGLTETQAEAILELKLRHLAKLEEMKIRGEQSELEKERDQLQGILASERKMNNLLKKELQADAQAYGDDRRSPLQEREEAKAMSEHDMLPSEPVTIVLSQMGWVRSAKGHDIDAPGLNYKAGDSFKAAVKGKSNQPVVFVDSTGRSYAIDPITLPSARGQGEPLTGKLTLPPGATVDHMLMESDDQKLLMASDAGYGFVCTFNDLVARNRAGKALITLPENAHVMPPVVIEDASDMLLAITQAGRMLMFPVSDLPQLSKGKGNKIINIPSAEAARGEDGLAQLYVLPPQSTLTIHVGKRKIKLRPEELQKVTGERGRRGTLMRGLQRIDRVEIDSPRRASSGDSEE
T2 sequence (P20083 whole entry): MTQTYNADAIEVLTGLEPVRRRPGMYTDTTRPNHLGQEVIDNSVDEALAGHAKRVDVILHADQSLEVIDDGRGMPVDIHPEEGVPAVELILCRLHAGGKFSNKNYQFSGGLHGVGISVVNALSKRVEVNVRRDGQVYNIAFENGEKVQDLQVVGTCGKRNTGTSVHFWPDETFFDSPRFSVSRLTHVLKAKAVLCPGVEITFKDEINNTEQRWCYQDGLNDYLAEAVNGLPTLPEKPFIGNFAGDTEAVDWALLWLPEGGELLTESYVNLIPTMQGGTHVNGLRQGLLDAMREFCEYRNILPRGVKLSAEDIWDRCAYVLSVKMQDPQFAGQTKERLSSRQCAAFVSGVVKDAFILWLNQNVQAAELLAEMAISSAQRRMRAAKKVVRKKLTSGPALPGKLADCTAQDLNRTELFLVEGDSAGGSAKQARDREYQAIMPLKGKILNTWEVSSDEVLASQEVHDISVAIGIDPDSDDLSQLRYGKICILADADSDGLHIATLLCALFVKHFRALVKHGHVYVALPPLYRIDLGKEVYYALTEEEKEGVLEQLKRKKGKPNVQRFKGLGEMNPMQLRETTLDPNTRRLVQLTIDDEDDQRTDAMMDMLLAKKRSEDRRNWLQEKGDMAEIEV
Experimental: 2.1. Biological and biochemical methods […]
as §1, §2
E. coli topoisomerase IV supercoiling relaxation assay (Inspiralis) was performed according to the manufacturer’s instructions, ensuring a constant concentration of 1% (v/v) DMSO.
Supercoiled pQE80L was prepared via plasmid purification and used as the substrate for the reaction. Reactions were analyzed as described for DNA gyrase assays. […]

SMILES | SOS response (normalized GFP fluorescence/cell) [1] | Pulldown of AddA and AddB by compound-functionalized Sepharose [2] | fold weaker potentiation of CFX in MRSA growth assays [3] [fold] | Effect on cell number (OD600) in SOS reporter assay ([1]; JE2 recA-GFP reporter with CFX (10 µM)) | Activity against DNA gyrase (E. coli DNA gyrase) | Inhibition of topoisomerase IV (E. coli topoisomerase IV)
O=C(O)c1cn(C2CC2)c2cc(N3CCN(C(=O)Nc4ccccc4)CC3)c(F)cc2c1=O [Compound 21] | did not inhibit the SOS response; also recorded: SOS activation increased | no interaction; also recorded: did not; also recorded: does not pulldown | ~100 | – | – | –
O=C(O)c1cn(C2CC2)c2cc(N3CCNCC3)c(F)cc2c1=O [CFX, ciprofloxacin, reference compound] | increase in normalized GFP fluorescence/cell; also recorded: SOS activation increased | – | – | decrease in cell number at low micromolar concentrations | inhibited | inhibited
